Experimental data from patent US12440476B2, “Agents that target telomerase reverse transcriptase (TERT) for treating cancer and sensitizing cancer cells to genotoxic therapy” (Northwestern University, priority 2022, dated 2025).

What was measured:
[1] = test system: MCF7 cells; assay: Senescence-associated beta-galactosidase (SA-β-Gal) assay; format: cell-based, human; settings: 50 nM, 7 days after IR
Description: MCF7, Saos-2, or CT26 cells were seeded at 3×10^4 per well in 6-well plates and allowed to attach to plate overnight. […] Then MCF7 and Saos-2 cells were irradiated with 0 or 6 Gy and CT26 cells with 0 or 10 Gy. After IR, MCF7 and Saos-2 cells were continuously cultured for 7 days and CT26 for 5 days, then fixed in 2% PFA and stained with staining buffer (1 mg/ml X-Gal (Golden Bio), 40 mM citric acid/sodium phosphate, 150 mM NaCl, 2 mM MgCl2, 3.3 mM K3[Fe(CN)6], 3.3 mM K4[Fe(CN)6], pH=6) for 16 h at 37° C., then washed with warm PBS three times and imaged in PBS within a week. Images were captured on a Zeiss Axiovert 200M microscope with a 20× Plan-NeoFluar objective and Axiocam digital camera. SA-β-Gal-positive and -negative cells were counted in more than 5 fields, yielding an average percentage indicated on each SA-β-Gal image as mean±SD. Three replicates were performed.

[2] = test system: CT26 cells; assay: Clonogenicity assay (inhibitor alone); format: cell-based, mouse; settings: 1 μM NU-1, 2 μM MST, 20 μM BIBR
Description: MCF7, Saos-2, or CT26 cells were seeded in 6-well plates at 100 cells per well in triplicate and allowed to attach overnight. MCF7 or CT26 cells were then treated with DMSO vehicle or TERT inhibitors in final concentration of 0.25, 0.5, 0.75, 1, 2 μM for NU-1, 2.5, 5, 7.5, 10, 20 μM for BIBR 1532, or 1, 2, 3, 4, 5 μM for MST-312. Saos-2 cells were treated with DMSO vehicle or TERT inhibitors in final concentration of 0.25, 0.5, 0.75, 1, 2 μM for NU-1 or 2.5, 5, 10, 20, 40 μM for BIBR 1532. The final volume of cell culture medium was 3 mL per well. MCF7 and Saos-2 cells were continuously cultured for 3 weeks and CT26 for 2 weeks in the presence of TERT inhibitors, fixed in methanol for 5 min, then stained with 0.5% crystal violet for 10 min at room temperature. After washing with water, the plates were dried at room temperature and imaged with an iBright Imaging System (Thermo Fisher Scientific).

Q: For `C=C1C(=O)[C@](C)(C(=O)OC)[C@H](CCc2cn(Cc3ccc(F)cc3F)nn2)O[C@@H]1C` [NU-1], which “Enhancement of senescence after IR at low concentration” value [1] is on record?
A: sufficient to enhance senescence after IR

Q: And the “Tolerance in clonogenic assay (inhibitor alone)” value [2]?
A: tolerated
